Data on two compounds can be found in patent US20230159509A1 (Amathus Therapeutics, Inc., priority 2020, published 2023).

For one experiment, the target named is T1, TRAP1 enzyme (Homo sapiens, UniProt Q12931).
T1 construct: 150 nM Trap1 enzyme was incubated with various concentrations of the test compound
T1 sequence (Q12931 60-704): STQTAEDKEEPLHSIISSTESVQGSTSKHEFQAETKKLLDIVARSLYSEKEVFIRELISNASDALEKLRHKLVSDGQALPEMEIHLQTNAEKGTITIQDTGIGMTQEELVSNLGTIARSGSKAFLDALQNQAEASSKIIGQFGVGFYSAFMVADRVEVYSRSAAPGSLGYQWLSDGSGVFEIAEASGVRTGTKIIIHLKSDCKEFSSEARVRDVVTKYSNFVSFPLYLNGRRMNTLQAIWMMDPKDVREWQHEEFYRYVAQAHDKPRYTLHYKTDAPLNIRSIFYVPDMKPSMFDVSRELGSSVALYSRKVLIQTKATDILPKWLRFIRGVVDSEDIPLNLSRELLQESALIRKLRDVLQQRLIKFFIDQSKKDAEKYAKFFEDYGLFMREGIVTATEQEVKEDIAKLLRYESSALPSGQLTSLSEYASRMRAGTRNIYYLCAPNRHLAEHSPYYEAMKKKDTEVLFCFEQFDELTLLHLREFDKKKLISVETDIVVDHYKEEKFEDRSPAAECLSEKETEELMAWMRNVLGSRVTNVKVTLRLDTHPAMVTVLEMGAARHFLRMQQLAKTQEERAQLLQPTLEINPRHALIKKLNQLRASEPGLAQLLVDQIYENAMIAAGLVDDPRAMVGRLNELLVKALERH
In words: ADP Glo assay of TRAP1 ATPase activity. The experiment is classed as biochemical. The method, boiled down:
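ADP-Glo luminescence quantifying ADP from 150 nM TRAP1 preincubated 30 min at 37° C with compound (0.79–100 μM), then 20 μM ATP for 60 min at 37° C. Buffer: 25 mM Pipes pH 7.5, 40 mM KCl, 0.05 mM MgCl2, EGTA, BSA, detergents. ADP from ATP/ADP standard curve; Emax and EC50 from sigmoidal fit.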
In general terms: ADP-Glo turns the ADP formed in a reaction into a luminescent signal.

Experiment [1] concerns tamoxifen-induced polycystic kidney disease model (Ksp-TamCre×PkdlLox). In words: Tamoxifen-induced polycystic kidney disease mouse model. The experiment is classed as in vivo. The settings on record: compound 1206 10 mg/kg po QD 14d; for 2 KW/BW ratio (kidney weight/body weight): compared to tamoxifen-induced vehicle control group. The procedure:
Compound 1206 (10 mg/kg po, QD dosing for 14d, n=13/group) was assessed in a tamoxifen-induced polycystic kidney disease model (Ksp-TamCre×PkdlLox; Human Molecular Genetics, 2007, Vol. 16, No. 24, 3188-3196). A negative control group induced with tamoxifen (Vehicle) and a negative control group not induced with tamoxifen (No Tam) were included. A positive control group was dosed with everolimus. Mice were dosed orally on both PND 10, 11 with 25 mg/kg tamoxifen. Oral dosage of vehicle, compound 1206, and everolimus started from PND 14 onwards to PND 27. The readouts of this study were body weight, kidney weight, BUN levels and histopathology assessment including cyst index.
The fixated kidney half was processed for paraffin embedding and further pathological assessment after hematoxylin-eosin staining. One piece of each H-E stained kidney half was observed by a board certified pathologist, who read a cross section of the kidney. For each kidney one section was evaluated. From this section an overview photo was taken (2X) and used to calculate the cystic index. The cystic areas were identified by a color thresholding method using an image analysis system (Image software, public domain software, NIH, Bethesda, Md.). The threshold area was calculated within a defined ROI (region of interest) representing the total area analyzed. This area represents at least 70-80% of the entire kidney section. The cystic index (CI) is defined as the percentage of the area of cysts lumen (in pixels) over the total kidney area in the selected ROI (in pixels).

A further experiment deals with mIMCD3 Pkd1 KO cells. In words: Mouse cell derived cyst assay. It counts as cell-based. The settings on record: Pkd 1 KO mouse cell derived cyst forming assay; FIG. 16. The protocol:
Mouse cell derived cyst assays were performed as described in Booij, Tijmen H et al., SLAS discovery: advancing life sciences R & D vol. 22.8 (2017): 974-984, or as described below.
Murine inner medullary collecting duct cell line (mIMCD3 Pkd1^−/− cells) • mIMCD3 Pkd1 KO cells were seeded in 384 wells plates in extracellular matrix. • 4 days after seeding, cultures were co-exposed to treatments and stimuli (2.5 μM forskolin); • After 72 h, cultures were fixed, stained for nuclei and actin cytoskeleton and imaged with 4× magnification; and • Image analysis of the 3D stack was done using Ominer™ image analysis software.

Where [2] appears, read: compared with tamoxifen-induced vehicle control group.

Structures are written as SMILES.

Turning to `COc1ncc(NC(=O)c2ccc3c(c2)n(C)c(=O)n3C)cc1S(=O)(=O)Nc1ccc(Cl)cc1` [compound 1206, N-(5-(N-(4-chlorophenyl)sulfamoyl)-6-methoxypyridin-3-yl)-1,3-dimethyl-2-oxo-2,3-dihydro-1H-benzo[d]imidazole-5-carboxamide], the EC50 at TRAP1 enzyme (concentration for half maximal activation, read-out: ADP GLO DRC: GeoMean EC50) is less than 10 µM. Further, the Emax on TRAP1 enzyme (maximal percent activation, read-out: ADP GLO DRC: Mean Emax) was 119 to 159%. Moreover, the “2 KW/BW ratio (kidney weight/body weight)” value in experiment [1] is reported as “significantly lower”. In addition, in experiment [1] (setting [2]), the cystic index result is given as “significantly lower” and the “urea levels (BUN)” value is recorded as “significantly lower”. In addition, the cyst formation entry in the experiment on mIMCD3 Pkd1 KO cells is reported as “preventing cyst formation”.

With `CO[C@H]1C[C@@H]2CC[C@@H](C)[C@@](O)(O2)C(=O)C(=O)N2CCCC[C@H]2C(=O)O[C@H]([C@H](C)C[C@@H]2CC[C@@H](OCCO)[C@H](OC)C2)CC(=O)[C@H](C)/C=C(\C)[C@@H](O)[C@@H](OC)C(=O)[C@H](C)C[C@H](C)/C=C/C=C/C=C/1C` [everolimus, reference compound], the “2 KW/BW ratio (kidney weight/body weight)” value in experiment [1] is given as “significantly lower”. Besides, the cystic index entry in experiment [1] (setting [2]) was “significantly lower”.

The EC50 is the concentration at which the effect is half-maximal. One may read the Emax as the greatest response seen or fitted, relative to the assay's reference.
